Source: PMC2756481 (Biochemical and biophysical research communications, 2009)
Read-outs that look alike come from different tables or passages of the source.

Key:
64 kDa MMP-2 [1] = molecular target: T1, 64 kDa MMP-2 (Homo sapiens, UniProt P08253); assay: OmniMMP fluorogenic substrate kinetic assay of MMP-2 activity; assay type: biochemical; conditions: for IC50: 15 µM substrate; for IC50 values (range in words): substrate degradation assay, 64 kDa MMP-2
T1 sequence (P08253 110-660): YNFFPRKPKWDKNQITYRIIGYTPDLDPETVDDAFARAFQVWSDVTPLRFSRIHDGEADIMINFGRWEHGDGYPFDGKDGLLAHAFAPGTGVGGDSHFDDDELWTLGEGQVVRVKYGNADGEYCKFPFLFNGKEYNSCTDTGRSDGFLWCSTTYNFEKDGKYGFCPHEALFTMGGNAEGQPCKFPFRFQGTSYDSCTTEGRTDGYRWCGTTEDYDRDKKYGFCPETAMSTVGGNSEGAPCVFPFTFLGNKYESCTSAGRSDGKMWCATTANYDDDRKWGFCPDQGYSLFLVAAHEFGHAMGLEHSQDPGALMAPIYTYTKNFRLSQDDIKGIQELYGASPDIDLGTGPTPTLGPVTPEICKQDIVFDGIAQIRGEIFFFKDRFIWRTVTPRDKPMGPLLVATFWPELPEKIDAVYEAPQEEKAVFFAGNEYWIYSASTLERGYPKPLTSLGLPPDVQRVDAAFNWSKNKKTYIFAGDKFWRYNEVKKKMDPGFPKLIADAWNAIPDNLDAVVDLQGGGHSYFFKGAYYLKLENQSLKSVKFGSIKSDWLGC

64 kDa MMP-2 [2] = molecular target: T1, 64 kDa MMP-2; assay: Gelatinolytic activity of MMP-2 by gelatin zymography; assay type: biochemical
PARP [3] = conditions: in vitro; cited from earlier work
PARP [4] = conditions: in animal models; cited from earlier work
[5] = read-out: IC50 ± SD, 10 µM ZnSO4, 50 mM Tris pH 7.6, 10 mM CaCl2, 0.05% Brij-35, 37 °C
[6] = IC50 ± SD, 10 µM ZnSO4, 50 mM Tris pH 7.6, 10 mM CaCl2, 0.05% Brij-35, 37 °C
[7] = IC50 ± SD, 1 nM ZnSO4, 50 mM Tris pH 7.6, 37 °C

IC50 values (range in words) (64 kDa MMP-2 [1]) | IC50 (64 kDa MMP-2 [1]; [6]) | IC50 (64 kDa MMP-2 [1]; [7]) | Compound | also measured
millimolar range | – | – | Nc1ncnc2c1ncn2[C@@H]1O[C@H](C(=O)N2CCN(CC(=O)Nc3cccc4c3CNC4=O)CC2)[C@@H](O)[C@H]1O [EB-47, 1-piperazineacetamide-4-[1-(6-amino-9H-purin-9-yl)-1-deoxy-D-ribofuranuron]-N-(2,3-dihydro-1H-isoindol-4-yl)-1-one] | IC50 (64 kDa MMP-2 [1]; [5]): > 3000 µM
– | 57 ± 6 µM | – | CN(C)c1ccc(O)c2c1C[C@H]1C[C@H]3[C@H](N(C)C)C(O)=C(C(N)=O)C(=O)[C@@]3(O)C(O)=C1C2=O [Minocycline, minocycline] | –
high micromolar range | 56 ± 14 µM | 27 ± 10 µM | CN(C)CC(=O)Nc1ccc2[nH]c(=O)c3ccccc3c2c1 [PJ-34, 2-(dimethylamino)-N-(5,6-dihydro-6-oxophenanthridin-2-yl)acetamide] | IC50 (64 kDa MMP-2 [2]): 9200 µM
high micromolar range | – | – | Nc1cccc2c(=O)[nH]ccc12 [5-AIQ, 5-aminoisoquinolinone] | IC50 (64 kDa MMP-2 [1]; [5]): 102 ± 34 µM
– | – | 116 ± 9 µM | c1cnc2c(c1)ccc1cccnc12 [o-Phenanthroline, o-phenanthroline] | –
– | 86 ± 13 µM | 93 ± 12 µM | C[C@H]1c2cccc(O)c2C(=O)C2=C(O)[C@]3(O)C(=O)C(C(N)=O)=C(O)[C@@H](N(C)C)[C@@H]3[C@@H](O)[C@@H]21 [Doxycycline, doxycycline] | –

Compound | IC50 values (range in words) (64 kDa MMP-2 [1]) | IC50 (64 kDa MMP-2 [1]; [6]) | IC50 (64 kDa MMP-2 [1]; [7]) | also measured
NC(=O)c1cccc(N)c1 [3-AB, 3-Aminobenzamide] | millimolar range | 1760 ± 220 µM | 1000 ± 200 µM | potency for PARP inhibition (PARP [3]): micromolar range; potency for PARP inhibition (PARP [4]): millimolar range
